Tests used:
Test in all cases: cell-based
Set-up in all cases: species or system Hana3A
hOR5R1 = target: T1, hOR5R1 (Homo sapiens, UniProt Q8NH85)
T1 sequence (Q8NH85 1-324): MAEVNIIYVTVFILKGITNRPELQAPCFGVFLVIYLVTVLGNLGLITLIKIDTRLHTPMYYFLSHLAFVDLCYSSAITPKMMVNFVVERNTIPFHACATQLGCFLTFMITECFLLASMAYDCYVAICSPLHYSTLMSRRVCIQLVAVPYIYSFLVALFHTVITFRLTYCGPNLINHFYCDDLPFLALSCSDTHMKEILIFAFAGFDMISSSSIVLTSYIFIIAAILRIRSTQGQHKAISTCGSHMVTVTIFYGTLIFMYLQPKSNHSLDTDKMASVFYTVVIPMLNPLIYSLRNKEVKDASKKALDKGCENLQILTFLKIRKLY

hOR8B2 = target: T2, hOR8B2 (Homo sapiens, UniProt Q96RD0)
T2 sequence (Q96RD0 1-313): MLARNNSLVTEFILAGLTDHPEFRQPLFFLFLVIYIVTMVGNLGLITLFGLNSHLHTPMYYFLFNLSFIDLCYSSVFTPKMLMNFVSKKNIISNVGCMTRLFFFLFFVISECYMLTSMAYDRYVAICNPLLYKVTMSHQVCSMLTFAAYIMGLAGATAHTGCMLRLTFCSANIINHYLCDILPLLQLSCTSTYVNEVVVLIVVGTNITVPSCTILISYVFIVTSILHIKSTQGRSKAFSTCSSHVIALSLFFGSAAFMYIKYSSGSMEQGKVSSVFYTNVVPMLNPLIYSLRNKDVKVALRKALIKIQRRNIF

hOR11H12 = target: T3, hOR11H12 (Homo sapiens, UniProt B2RN74)
T3 sequence (B2RN74 1-326): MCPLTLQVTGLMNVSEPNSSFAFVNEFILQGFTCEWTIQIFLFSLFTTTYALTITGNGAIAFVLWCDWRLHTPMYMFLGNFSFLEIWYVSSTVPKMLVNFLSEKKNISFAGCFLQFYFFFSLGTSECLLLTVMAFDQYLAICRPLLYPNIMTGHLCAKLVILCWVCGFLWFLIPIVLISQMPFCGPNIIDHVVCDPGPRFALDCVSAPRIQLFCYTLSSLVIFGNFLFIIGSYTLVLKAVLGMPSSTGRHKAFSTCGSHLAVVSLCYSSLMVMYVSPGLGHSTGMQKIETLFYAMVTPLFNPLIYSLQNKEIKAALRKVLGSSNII

hOR8K5 = target: T4, hOR8K5 (Homo sapiens, UniProt Q8NH50)
T4 sequence (Q8NH50 1-307): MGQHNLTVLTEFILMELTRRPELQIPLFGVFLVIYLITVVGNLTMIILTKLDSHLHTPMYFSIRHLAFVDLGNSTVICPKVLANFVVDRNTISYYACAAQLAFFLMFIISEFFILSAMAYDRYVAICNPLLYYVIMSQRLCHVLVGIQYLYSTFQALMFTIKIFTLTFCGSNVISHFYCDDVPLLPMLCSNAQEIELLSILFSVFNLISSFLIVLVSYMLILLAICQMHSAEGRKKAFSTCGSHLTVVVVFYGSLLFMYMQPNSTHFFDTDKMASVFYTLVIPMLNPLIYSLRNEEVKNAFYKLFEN

Row | Structure (SMILES) | EC50 (hOR5R1) [µM] | EC50 (hOR8B2) [µM] | EC50 (hOR11H12) [µM] | EC50 (hOR8K5) [µM]
1 | C=C(C)[C@@H]1CC=C(C)C(=O)C1 [R-carvone] | 12 | > 1000 | 16.3 | 4.5
2 | O=C1CCOc2ccccc21 [4-chromanone] | 218 | 15 | > 1000 | > 1000
3 | O=c1ccc2ccccc2o1 [coumarin] | 10.2 | > 1000 | 91.9 | > 1000
4 | CC(=O)c1ccccc1 [acetophenone] | 3.4 | > 1000 | 4.7 | > 1000
